This passage reports Activity results from ChEMBL document CHEMBL1138412, “Chalcone based aryloxypropanolamines as potential antihyperglycemic agents” (2007).

Each structure is given as a SMILES string.

Test [1] is filed under the species Rattus norvegicus. In words: Antihyperglycemic activity in sucrose loaded model of Sprague-Dawley albino rat assessed as reduction in blood glucose by AUC method. It is filed as functional. Details: scale not given: the % may be the effect or the level left.
The species named for test [2] is Rattus norvegicus. In words: Antihyperglycemic activity in streptozotocin induced diabetic model of Sprague-Dawley albino rat assessed as reduction in blood glucose by AUC method. It is filed as functional. Details: scale not given: the % may be the effect or the level left.

Consider `O=C(/C=C/c1ccc(OCC(O)CN2CCCCC2)cc1)c1ccccc1` (stereo unspecified), for which the Activity in the test listed under Rattus norvegicus [1] is on record as 22.3%; in the test filed under Rattus norvegicus [2], 19.3%. For the compound `CC(C)CNCC(O)COc1ccc(/C=C/C(=O)c2ccccc2)cc1` (stereo unspecified), the Activity in the test filed under Rattus norvegicus [1] is listed as 6.5%. For `O=C(/C=C/c1cccc(OCC(O)CN2CCN(c3ccccc3Cl)CC2)c1)c1ccccc1` (stereo unspecified), the results for the Activity in the test filed under Rattus norvegicus [1] and in the test listed under Rattus norvegicus [2] were 19% and 8.3%, respectively. For the compound `CC(C)(C)NCC(O)COc1ccc(/C=C/C(=O)c2ccccc2)cc1` (stereo unspecified), the Activity in the test filed under Rattus norvegicus [1] is 29%; in the test filed under Rattus norvegicus [2] it was 10.3%. Taken in the same sequence, the figures for `O=C(/C=C/c1cccc(OCC(O)CN2CCCCC2)c1)c1ccccc1` (stereo unspecified) were 11.3% and 9.4%. Take `CC(C)CNCC(O)COc1cccc(/C=C/C(=O)c2ccccc2)c1` (stereo unspecified): in the test listed under Rattus norvegicus [1], the Activity amounted to 14.5%.

`O=C(/C=C/c1cccc(OCC(O)CN2CCN(c3ccccc3)CC2)c1)c1ccccc1` (stereo unspecified): the Activity in the test listed under Rattus norvegicus [1] turned out to be 22.9%; in the test filed under Rattus norvegicus [2], 10.4%. Taken in the same sequence, the figures for `O=C(/C=C/c1ccc(OCC(O)CN2CCN(c3ccccc3)CC2)cc1)c1ccccc1` (stereo unspecified) were 31.1% and 3%. In the case of `CN1CCN(CC(O)COc2cccc(/C=C/C(=O)c3ccccc3)c2)CC1` (stereo unspecified), the values for the Activity in the test listed under Rattus norvegicus [1] and in the test filed under Rattus norvegicus [2] were 20.4% and 20.1%, respectively. As for `CC(C)N(CC(O)COc1cccc(/C=C/C(=O)c2ccccc2)c1)C(C)C` (stereo unspecified), the Activity in the test listed under Rattus norvegicus [1] turned out to be 26.7%; in the test filed under Rattus norvegicus [2] it was 22.6%.

For `CC(C)N(CC(O)COc1ccc(/C=C/C(=O)c2ccccc2)cc1)C(C)C` (stereo unspecified), in the test filed under Rattus norvegicus [1], the Activity is 7.9%. Turning to `CC(C)(C)NCC(O)COc1cccc(/C=C/C(=O)c2ccccc2)c1` (stereo unspecified), the Activity in the test filed under Rattus norvegicus [1] is given as 21.7%; in the test filed under Rattus norvegicus [2], 10.6%. In the same order, the values of `CCN(CC)CCCNCC(O)COc1cccc(/C=C/C(=O)c2ccccc2)c1` (stereo unspecified) are 20.8% and 8.3%. Taken in the same sequence, the figures for `COc1ccc(Cl)cc1C(=O)NCCc1ccc(S(=O)(=O)NC(=O)NC2CCCCC2)cc1` [GLYBURIDE] were 33.7% and 29%. On to `CN(C)C(=N)NC(=N)N` [METFORMIN], for which the Activity in the test filed under Rattus norvegicus [1] was found to be 12.9%.
